Data on five compounds can be found in US20100160294A1 (Cypress Biosciences, Inc., priority 2008, published 2010).

The nature of series [1]: Example 1: tolerability study of mirtazapine and reboxetine in normal healthy subjects. As to conditions: 6 weeks; 15 mg mirtazapine in the evening, 2 mg reboxetine in the morning, or 2 or 4 mg reboxetine + 15 mg mirtazapine. The class given is in vivo, human. The method, then:
(§1) The subjects receive 2 capsules per day, one in the morning and one at bedtime. […] All medications are administered in an over-encapsulated format that ensures blinding of study participants, staff and investigators. All subjects are scheduled to receive a total of 6 weeks of therapy, and are required to return to the clinics after 1, 2, 4 and 6 weeks of therapy. Patients are required to complete paper self-assessments, electronic diary assessments, computer based cognitive testing, as well as vital signs and weight assessments at the clinic visits.

A short description of series [2]: Example 4: tolerability study of mirtazapine and betahistine in normal healthy subjects. The following applies: 6 weeks; 15 mg mirtazapine in the evening, 8 mg betahistine in the morning, or 8 or 16 mg betahistine + 15 mg mirtazapine. It is filed as in vivo, human. The method, then:
as §1

For series [3], the system named is 5-HT and NA reuptake sites. As to conditions: ratio of Ki for serotonin reuptake to Ki for norepinephrine reuptake; from U.S. Pat. No. 6,642,235; cited from earlier work.
For series [4] the following is noted: cited from earlier work.

Regarding `CCOc1ccccc1OC(c1ccccc1)C1CNCCO1` (racemic) [reboxetine, 2-[(2-ethoxyphenoxy)-phenyl-methyl]morpholine], the side effects entry in series [1] is “insomnia, nausea/vomiting, and weight loss”; in series [2] it was “insomnia, nausea/vomiting, and weight loss”. Further, the “norepinephrine reuptake inhibitor selectivity (Ki5HT/KiNA)” value in series [3] is “about 80”. With `CN(C)CCC=C1c2ccccc2CCc2ccccc21` [amitriptyline], the “appetite increase reported, share of patients” value in series [4] (controlled studies, placebo 2%) was 6%. The “weight gain of greater than or equal to 7% of body weight, share of patients” value in series [4] (same controlled trials, placebo 0%) was 5.9%. As for `CNCCc1ccccn1` [betahistine, 2-[2-(methylamino)ethyl]pyridine], in series [2], the side effects result was “insomnia, nausea/vomiting, and weight loss”.

`CN1CCN2c3ncccc3Cc3ccccc3C2C1` (stereo not drawn) [mirtazapine, 1,2,3,4,10,14b-hexahydro-2-methylpyrazino [2,1-a]pyrido[2,3-c]benzazepine]: the side effects entry in series [1] was “weight gain, sedation, and cognitive deficits”; in series [2], “weight gain, sedation, and cognitive deficits”. As to (S,S)reboxetine, the “norepinephrine reuptake inhibitor selectivity (Ki5HT/KiNA)” value in series [3] is given as “about 12,700”.
